Reference: patent publication US8735406B2, “8-oxodihydropurine derivative” (Dainippon Sumitomo Pharma Co., Ltd., priority 2009, dated 2014)
Like-named read-outs stand apart in the source and are kept apart here.

Target: T1, FAAH (Rattus norvegicus, UniProt P97612)
T1 construct: Preparation of Rat Brain Membranes Preparations (FAAH Enzyme Solution); from tissue; host or cells: rat cerebrum (brain membrane preparation)
T1 sequence (P97612 1-579): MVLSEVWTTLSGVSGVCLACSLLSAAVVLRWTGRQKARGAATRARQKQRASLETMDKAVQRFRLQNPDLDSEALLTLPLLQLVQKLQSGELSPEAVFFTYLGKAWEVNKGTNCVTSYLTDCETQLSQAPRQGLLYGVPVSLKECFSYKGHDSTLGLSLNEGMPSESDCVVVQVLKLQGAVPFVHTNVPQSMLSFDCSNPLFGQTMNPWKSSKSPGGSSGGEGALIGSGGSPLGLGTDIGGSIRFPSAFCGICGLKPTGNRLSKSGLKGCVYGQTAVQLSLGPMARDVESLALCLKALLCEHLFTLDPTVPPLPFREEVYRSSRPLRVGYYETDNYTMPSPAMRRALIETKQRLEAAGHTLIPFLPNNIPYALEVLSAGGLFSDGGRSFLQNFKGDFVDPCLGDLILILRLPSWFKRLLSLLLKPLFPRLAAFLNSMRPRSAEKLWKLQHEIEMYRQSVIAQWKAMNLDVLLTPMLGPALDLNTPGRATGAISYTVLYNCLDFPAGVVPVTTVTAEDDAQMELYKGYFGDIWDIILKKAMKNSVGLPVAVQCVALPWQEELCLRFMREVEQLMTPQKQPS
Assay: Determination of FAAH inhibitory activity in rat (rat brain membrane preparations, [3H]-anandamide hydrolysis)
Type: biochemical
Settings: for inhibition at 0.1 µM: read-out: FAAH Inhibition, Inhibition Rate at 100 nM; for IC50: test substance 0.1 nM to 1 μM, read-out: FAAH Inhibition IC50
Protocol: Determination of FAAH Inhibitory Activity in Rat
The preparation of rat brain membranes preparations and the determination of FAAH inhibitory activity were carried out according to the Jonsson et al. method [Br. J. Pharmacol., 133, 1263 (2001)].
(1) Preparation of Rat Brain Membranes Preparations (FAAH Enzyme Solution)
The cerebrum was extracted from rats and was freeze-stored at −80° C. To the frozen cerebrum was added 4° C. enzyme homogenization buffer (20 mM HEPES-buffer pH 7.0, 1 mM MgCl2) and the mixture was homogenized using a homogenizer in ice and the homogenates were centrifuged (36,000×g for 20 minutes). After repeating operations of homogenization and centrifugation, the tissue pellets were re-suspended with 4° C. enzyme homogenization buffer. The re-suspensions were incubated at 37° C. for 15 minutes and were centrifuged (36,000×g for 20 minutes), and the resulting tissue membranes were then re-suspended with enzyme solution preparation buffer (50 mM Tris-HCl buffer pH 7.4, 1 mM EDTA, 3 mM MgCl2). The protein concentration in the resulting membrane preparations were determined according to a colorimetry method (BCA Protein Assay: Pierce Inc.) and the preparations were freeze-stored at −80° C. until used for assay.
(2) Screening of Substances for Inhibiting FAAH Activity
To the above membrane preparations (final concentration 100 μg/mL) were added a solution of test substances in DMSO (final concentration in DMSO 1%) and an assay buffer (for final preparation; 22 mM Tris-HCl (pH 7.6), 1.4 mM EDTA, 1.5% BSA, 0.6 mM MgCl2) and the resulting mixtures were preincubated at 37° C. for 10 minutes. Thereto was added a substrate solution (for final preparation; 2 nM [^3H]-Anandamide (American Radiolabeled Chemicals Inc.)+2 μM Anandamide (Sigma-Aldrich Co.)) (final assay volume of 200 μL) and the resulting mixtures were incubated at 37° C. for 10 minutes. Here in control experiment, DMSO was added instead of the solution of test substance in DMSO. Also in blank experiment, DMSO was added instead of the solution of test substance in DMSO and an enzyme solution preparation buffer was also added instead of the membrane preparations. After the incubation, thereto was added a 400 μL ice-cooled solution of chloroform and methanol (1:1 ratio by volume) and the resulting mixtures were stirred. An ethanolamine (ethanolamine-1-[^3H]) as a decomposed product was separated into an upper layer (water/methanol layer) by centrifugation (1,000×g for 10 minutes). The upper layer 200 μL was transferred into 96 well Deepwell Luma Plate-96 (PerkinElmer Inc.) and the radioactivity was measured by microplate scintillation counter (TopCount NXT™: […].). The substances showing a lower measured value compared to those of control were selected as the compound having a FAAH inhibitory activity.
(3) Determination of IC50 Value
The test substances were prepared such that the final concentration of the compounds is within the range of 0.1 nM to 1 μM and were then examined on the effect on FAAH activity according to the above-mentioned protocol.

[1] = rat brain membrane preparations, 100 nM test substance
[2] = rat brain membrane preparations

Row | SMILES | inhibition at 0.1 µM [1] [%] | IC50 [2] [nM] | inhibition at 0.1 µM [%] | inhibition at 1 µM (rat brain membrane preparations, 1000 nM test substance (stated in the cell), read-out: FAAH Inhibition, Inhibition Rate (1000 nM)) [%]
1 | Cn1c(=O)n(C(=O)N2CCCC2)c2cnc(/C=C/c3ccccc3)nc21 [Example 1, 9-methyl-2-[(E)-2-phenylethenyl]-7-(pyrrolidin-1-ylcarbonyl)-7,9-dihydro-8H-purine-8-one] | 100 | 6 |  | 
2 | CCN(C)C(=O)n1c(=O)n(C)c2nc(-c3ccccc3)ncc21 [Example 2, N-ethyl-N,9-dimethyl-8-oxo-2-phenyl-8,9-dihydro-7H-purine-7-carboxamide] | 99 | 10 |  | 
3 | COc1ccc(/C=C/c2ncc3c(n2)n(C)c(=O)n3C(=O)N2CCCC2)cc1 [Example 4, 2-[(E)-2-(4-Methoxyphenyl)ethenyl]-9-methyl-7-(pyrrolidin-1-ylcarbonyl)-7,9-dihydro-8H-purine-8-one] | 99 | 10 |  | 
4 | Cn1c(=O)n(C(=O)N2CCCC2)c2cnc(/C=C/c3ccc(F)cc3)nc21 [Example 5, 2-[(E)-2-(4-Fluorophenyl)ethenyl]-9-methyl-7-(pyrrolidin-1-ylcarbonyl)-7,9-dihydro-8H-purine-8-one] | 98 | 15 |  | 
5 | Cn1c(=O)n(C(=O)N2CCCC2)c2cnc(/C=C/c3ccc(Cl)cc3)nc21 [Example 8, 2-[(E)-2-(4-Chlorophenyl)ethenyl]-9-methyl-7-(pyrrolidin-1-ylcarbonyl)-7,9-dihydro-8H-purine-8-one] | 87 | 57 |  | 
6 | Cc1ccc(/C=C/c2ncc3c(n2)n(C)c(=O)n3C(=O)N2CCCC2)cc1 [Example 9, 9-Methyl-2-[(E)-2-(4-methylphenyl)ethenyl]-7-(pyrrolidin-1-ylcarbonyl)-7,9-dihydro-8H-purine-8-one] | 92 | 47 |  | 
7 | Cn1c(=O)n(C(=O)N2CCCC2)c2cnc(CCc3ccccc3)nc21 [Example 11, 9-Methyl-2-(2-phenylethyl)-7-(pyrrolidin-1-ylcarbonyl)-7,9-dihydro-8H-purine-8-one] | 79 | 66 |  | 
8 | COc1ccc(CCc2ncc3c(n2)n(C)c(=O)n3C(=O)N2CCCC2)cc1 [Example 12, 2-[2-(4-Methoxyphenyl)ethyl]-9-methyl-7-(pyrrolidin-1-ylcarbonyl)-7,9-dihydro-8H-purine-8-one] | 93 | 46 |  | 
9 | Cn1c(=O)n(C(=O)N2CCCC2)c2cnc(-c3ccccc3)nc21 [Example 16, 9-Methyl-2-phenyl-7-(pyrrolidin-1-ylcarbonyl)-7,9-dihydro-8H-purine-8-one] | 100 | 7 |  | 
10 | Cn1c(=O)n(C(=O)N2CCCC2)c2cnc(-c3cccc(Cl)c3)nc21 [Example 17] | 101 | 8 |  | 
11 | Cn1c(=O)n(C(=O)N2CCCC2)c2cnc(-c3ccc(Cl)cc3)nc21 [Example 18] | 99 | 7 |  | 
12 | Cn1c(=O)n(C(=O)N2CCCC2)c2cnc(Cc3cccc(Cl)c3)nc21 [Example 19, 2-(3-Chlorobenzyl)-9-methyl-7-(pyrrolidin-1-ylcarbonyl)-7,9-dihydro-8H-purine-8-one] | 99 | 9 |  | 
13 | Cn1c(=O)n(C(=O)N2CCCC2)c2cnc(Cc3ccc(Cl)cc3)nc21 [Example 20, 2-(4-Chlorobenzyl)-9-methyl-7-(pyrrolidin-1-ylcarbonyl)-7,9-dihydro-8H-purine-8-one] | 95 | 40 |  | 
14 | Cn1c(=O)n(C(=O)N2CCCC2)c2cnc(CCCc3ccccc3)nc21 [Example 21] | 57 | 84 |  | 
15 | CN(C)C(=O)n1c(=O)n(C)c2nc(-c3ccccc3)ncc21 [Example 22] | 102 | 12 |  | 
16 | Cn1c(=O)n(C(=O)N2CCC2)c2cnc(-c3ccccc3)nc21 [Example 23, 7-(Azetidin-1-ylcarbonyl)-9-methyl-2-phenyl-7,9-dihydro-8H-purine-8-one] | 102 | 5 |  | 

Row | SMILES | inhibition at 0.1 µM [1] [%] | IC50 [2] [nM] | inhibition at 0.1 µM [%] | inhibition at 1 µM (rat brain membrane preparations, 1000 nM test substance (stated in the cell), read-out: FAAH Inhibition, Inhibition Rate (1000 nM)) [%]
17 | Cn1c(=O)n(C(=O)N2CCCCC2)c2cnc(-c3ccccc3)nc21 [Example 24, 9-Methyl-2-phenyl-7-(piperidin-1-ylcarbonyl)-7,9-dihydro-8H-purine-8-one] | 97 | 29 |  | 
18 | CN1CCN(C(=O)n2c(=O)n(C)c3nc(-c4ccccc4)ncc32)CC1 [Example 26] | 38 | > 100 |  | 
19 | CN(C(=O)n1c(=O)n(C)c2nc(-c3ccccc3)ncc21)c1ccccc1 [Example 27] | 76 | 63 |  | 
20 | COC[C@H]1CCCN1C(=O)n1c(=O)n(C)c2nc(-c3ccccc3)ncc21 [Example 29] | 67 | 75 |  | 
21 | Cn1c(=O)n(C(=O)N2CCC(c3ccccc3)CC2)c2cnc(-c3ccccc3)nc21 [Example 33, 9-Methyl-2-phenyl-7-[(4-phenylpiperidin-1-yl)carbonyl]-7,9-dihydro-8H-purine-8-one] | 91 | 47 |  | 
22 | CN(Cc1ccccc1)C(=O)n1c(=O)n(C)c2nc(-c3ccccc3)ncc21 [Example 34, N-Benzyl-N,9-dimethyl-8-oxo-2-phenyl-8,9-dihydro-7H-purine-7-carboxamide] | 101 | 23 |  | 
23 | CN(CCCc1ccccc1)C(=O)n1c(=O)n(C)c2nc(-c3ccccc3)ncc21 [Example 35, N,9-Dimethyl-8-oxo-2-phenyl-N-(3-phenylpropyl)-8,9-dihydro-7H-purine-7-carboxamide] |  | 8 | 100 | 
24 | CN(CCCCc1ccccc1)C(=O)n1c(=O)n(C)c2nc(-c3ccccc3)ncc21 [Example 36, N,9-Dimethyl-8-oxo-2-phenyl-N-(4-phenylbutyl)-8,9-dihydro-7H-purine-7-carboxamide] | 98 | 7 |  | 
25 | CCOC(=O)CN(C)C(=O)n1c(=O)n(C)c2nc(-c3ccccc3)ncc21 [Example 37, Ethyl N-methyl-N-[(9-methyl-8-oxo-2-phenyl-8,9-dihydro-7H-purin-7-yl)carbonyl]glycinate] | 91 | 46 |  | 
26 | COC(=O)CN(C)C(=O)n1c(=O)n(C)c2nc(-c3ccccc3)ncc21 [Example 38] | 73 | 76 |  | 
27 | COCCN(C)C(=O)n1c(=O)n(C)c2nc(-c3ccccc3)ncc21 [Example 39, N-(2-Methoxyethyl)-N,9-dimethyl-8-oxo-2-phenyl-8,9-dihydro-7H-purine-7-carboxamide] | 98 | 43 |  | 
28 | CCN(CC)C(=O)n1c(=O)n(C)c2nc(-c3ccccc3)ncc21 [Example 40] | 20 | > 100 |  | 
29 | Cn1c(=O)n(C(=O)N2CCCCCC2)c2cnc(-c3ccccc3)nc21 [Example 41] | 33 | > 100 |  | 
30 | CN(C(=O)n1c(=O)n(C)c2nc(-c3ccccc3)ncc21)C1CCCCC1 [Example 43] | 20 | > 100 |  | 
31 | Cn1c(=O)n(C(=O)N2CCCC2Cc2ccccc2)c2cnc(-c3ccccc3)nc21 (centres unmarked) [Example 44] |  | > 100 |  | 30
